Results reported in US8455443B2, “Methods of use of skin wound healing compositions” (University of Southern California, priority 2009, dated 2013).

Experiments:
HKC migration = assay: in vitro pro-motility (cell migration) activity of hsp90α and its fragments, FIG. 1; format: cell-based, human; settings: for activity on cell migration: relative to full length hsp90α
Procedure: FIG. 1 contains a list of amino acid sequences that were tested for in vitro efficacy as compared to a control medium. The amino acid sequences are identified in FIG. 1 as follows:
Therefore, hsp90α promotes HKC migration mainly through its middle and the carboxyl domains, consistent with their surface location in hsp90α.
However, as can also be seen in FIG. 1, not all of the full hsp90α protein or the entire middle domain and charged portion of hsp90α protein is necessary to promote wound healing. […] Thus, the unnecessary portions of hsp90α need not be included in a composition for wound healing, thereby allowing a composition to be more efficacious per weight of active wound healing agent. Moreover, instead of relying on complicated isolation and extraction methods to obtain the hsp90α protein or the middle domain plus charged portion of hsp90α protein, more inexpensive and conventional methods of synthesis may be employed to obtain the lower chain length polypeptide chains.

[1] = system: 1 cm×1 cm full-thickness excision wound on the back of nude mice; assay: full-thickness excision skin wound healing in nude mice, topical treatment; format: in vivo; settings: for wound sizes: n=10 per group
Procedure: 100 μg F-3 fragments in 100 μl of 10% Carboxymethylcellulose cream and the cream alone was topically applied to the 1 cm×1 cm wound on the back of nude mice daily for 5 days, and wounds were analyzed every two days.
The pharmaceutical 100 μl of 10% carboxymethylcellulose cream (Sterile) is mixed in and the 1 cm×1 cm wound on the back of a nude mouse is topically covered. Following this treatment, the wound is covered with a few antibiotics and bandi and the bandi are fixed by rolling the mouse with coban. The F-3 compound mixture is then added every day for up to five days and the wound is analyzed every two days.
To prepare mice for topical treatment of F-3, 1.0-cm×1.0-cm full-thickness excision wounds were made by lifting the skin with forceps and removing full thickness skin with a pair of scissors on the mid-back of 8 to 10 week old mice. The wounds were topically covered by 100 μl 10% carboxymethylcellulose either without (as a control) or with 300 μg recombinant F-3 compound. The wound area was then covered with Band-Aid and Coban, a self-adherent wrap, to prevent desiccation. Only one dose of F-3 compounds was administered to the wound. To measure the wound area, standardized digital photographs were taken of the wounds at 4, 6, 8, 11, 13 and 15 days post-wounding and the open wound areas were determined with an image analyzer (AlphaEase FC version 4.1.0, Alpha Innotech Corporation). Percentage of wound area was defined by comparing areas of healing wounds to those of the original wounds. The Student T test was used for the statistical analysis. All animal studies were conducted using protocols approved by the University of Southern California Institutional Animal Use Committee.
A 1.0-cm^2 (lcm×lcm) square full-thickness excision wound was made on the mid-back of 8 to 10 week old athymic nude mice and the pharmaceutical composition of F-3 was applied topically daily for 5 days (n=10 mice per group). (A) Representative day 4, 6, 8, 11, 13 and 15 wounds are shown. […] (B) Mean±SD wound size measurements at day 4, 6, 8, 11, 13 and 15 post-wounding (n=10 mice for each group). […]

Substance | activity on cell migration (HKC migration) [%] | closure of the wounds ([1]; 100 μg in 100 μl 10% carboxymethylcellulose cream, topical, daily for 5 days, day 4, 6, 8, 11, 13, 15, vs cream control, FIGS. 2A-2F) | wound sizes ([1]; F-3 vs 40 μg PDGF-BB (Regenerex) for 5 days, day 0, 5, 7, 10, 12, FIGS. 3A-3E) | wound sizes ([1]; athymic nude mice, topical daily for 5 days, day 4, 6, 8, 11, 13, 15, vs cream alone) | pro-motility activity (HKC migration; in comparison to the control medium)
F-3: fragment of hsp90α consisting of 115 amino acid units, from amino acid number 236 to 350 | ~100 | significantly accelerated closure of the wounds | significantly reduced | significantly reduced | 
EEKEDKEEEKEKEEKESEDKPEIEDVGSDEEEEKKDGDKKKKKKIKEKYIDQEE (listed as Homo sapiens) [F-5, hsp90α fragment having 54 amino acid units from amino acid number 236 to 289] | ~100 |  |  |  | 
WT hsp90α: the full-length (WT) hsp90α protein | 100 |  |  |  | remarkable pro-motility activity
